The results in this text go back to ChEMBL document CHEMBL5247623, “The SAR and action mechanisms of autophagy inhibitors that eliminate drug resistance” (Eur J Med Chem, 2022).

One test concerns BT-474. Nature of the test: Inhibition of autophagy in human BT-474 cells. It is filed as functional, cell-based.
For test [1], the target named is T1, Serine/threonine-protein kinase ULK1 (Homo sapiens, UniProt O75385).
T1 sequence (O75385 whole entry): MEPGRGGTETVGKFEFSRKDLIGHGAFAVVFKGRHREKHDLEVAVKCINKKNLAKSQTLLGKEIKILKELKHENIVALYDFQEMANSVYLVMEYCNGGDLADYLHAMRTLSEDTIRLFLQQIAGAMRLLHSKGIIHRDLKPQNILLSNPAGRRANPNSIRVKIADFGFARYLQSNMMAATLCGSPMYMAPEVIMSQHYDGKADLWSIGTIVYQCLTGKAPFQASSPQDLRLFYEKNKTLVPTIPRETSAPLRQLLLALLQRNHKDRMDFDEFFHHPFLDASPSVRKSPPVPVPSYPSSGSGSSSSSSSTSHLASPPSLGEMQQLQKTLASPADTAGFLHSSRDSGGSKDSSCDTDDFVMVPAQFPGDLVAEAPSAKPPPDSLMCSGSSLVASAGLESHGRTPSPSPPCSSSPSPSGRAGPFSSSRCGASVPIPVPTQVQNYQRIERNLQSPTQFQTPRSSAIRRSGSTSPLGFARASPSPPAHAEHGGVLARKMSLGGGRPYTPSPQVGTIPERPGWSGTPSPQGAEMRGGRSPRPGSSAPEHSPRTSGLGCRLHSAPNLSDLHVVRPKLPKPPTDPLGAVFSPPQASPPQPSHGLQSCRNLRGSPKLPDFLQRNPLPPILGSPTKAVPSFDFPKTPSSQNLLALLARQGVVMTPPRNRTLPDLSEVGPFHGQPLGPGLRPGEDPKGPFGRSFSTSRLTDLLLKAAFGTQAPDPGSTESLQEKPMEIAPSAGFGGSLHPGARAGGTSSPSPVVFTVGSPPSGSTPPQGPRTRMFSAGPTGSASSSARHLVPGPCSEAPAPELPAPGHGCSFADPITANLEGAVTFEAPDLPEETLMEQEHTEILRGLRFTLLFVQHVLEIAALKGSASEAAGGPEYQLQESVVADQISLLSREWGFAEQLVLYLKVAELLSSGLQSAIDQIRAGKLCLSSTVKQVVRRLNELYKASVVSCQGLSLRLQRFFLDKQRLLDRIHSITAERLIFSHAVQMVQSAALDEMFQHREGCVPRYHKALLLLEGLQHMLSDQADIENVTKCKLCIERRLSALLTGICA
Nature of the test: Inhibition of ULK1 (unknown origin).

In test [2] the target is T2, Serine/threonine-protein kinase ULK2 (Homo sapiens, UniProt Q8IYT8).
T2 sequence (Q8IYT8 whole entry): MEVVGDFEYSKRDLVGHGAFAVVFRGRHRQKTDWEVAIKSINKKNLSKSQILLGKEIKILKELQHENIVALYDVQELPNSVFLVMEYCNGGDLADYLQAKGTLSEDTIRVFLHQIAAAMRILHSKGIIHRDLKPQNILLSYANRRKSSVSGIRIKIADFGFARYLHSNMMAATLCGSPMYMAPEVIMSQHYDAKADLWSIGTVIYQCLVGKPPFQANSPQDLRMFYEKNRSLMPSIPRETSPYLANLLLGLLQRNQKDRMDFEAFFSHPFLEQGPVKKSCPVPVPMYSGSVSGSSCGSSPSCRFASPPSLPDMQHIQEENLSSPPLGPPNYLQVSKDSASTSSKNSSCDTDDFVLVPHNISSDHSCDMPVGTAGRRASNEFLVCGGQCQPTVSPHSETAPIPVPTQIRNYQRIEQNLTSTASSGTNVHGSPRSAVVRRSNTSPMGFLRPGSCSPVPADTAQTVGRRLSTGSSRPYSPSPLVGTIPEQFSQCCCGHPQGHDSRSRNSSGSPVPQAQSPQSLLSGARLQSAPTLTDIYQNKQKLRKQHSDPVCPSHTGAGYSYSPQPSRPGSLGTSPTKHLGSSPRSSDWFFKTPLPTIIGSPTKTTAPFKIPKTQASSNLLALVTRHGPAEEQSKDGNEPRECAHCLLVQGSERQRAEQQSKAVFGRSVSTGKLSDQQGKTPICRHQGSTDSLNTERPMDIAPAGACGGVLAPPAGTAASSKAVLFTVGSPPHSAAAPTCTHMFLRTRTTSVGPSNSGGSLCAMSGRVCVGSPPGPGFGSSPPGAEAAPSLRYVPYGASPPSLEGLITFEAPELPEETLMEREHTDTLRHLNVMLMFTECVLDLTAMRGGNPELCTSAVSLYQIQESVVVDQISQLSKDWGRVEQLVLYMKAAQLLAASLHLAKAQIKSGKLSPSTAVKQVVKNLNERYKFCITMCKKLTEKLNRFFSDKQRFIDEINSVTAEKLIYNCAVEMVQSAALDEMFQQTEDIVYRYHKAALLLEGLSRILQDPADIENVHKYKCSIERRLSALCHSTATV
Nature of the test: Inhibition of ULK2 (unknown origin).

Test [3] in a line: Inhibition of bafilomycin induced autophagic flux in mouse embryonic fibroblast cells assessed as fold change in LC3-II levels at 1 uM incubated for 1 hr by immunoblot analysis relative to control. Format: functional. Background: In western blotting, separated proteins are transferred to a membrane and probed.
Test [4] concerns U2OS. Kind of test: Cytotoxicity against human U2OS cells. Format: functional, cell-based.
Test [5] deals with U2OS. Nature of the test: Inhibition of autophagy in human U2OS cells expressing tfLC3 incubated for 3 hrs by fluorescent microscopy. Format: functional, cell-based.
In test [6] the target is Phosphatidylinositol 4,5-bisphosphate 3-kinase catalytic subunit gamma isoform (Homo sapiens, UniProt P48736). Kind of test: Inhibition of P13Kgamma (unknown origin).
Chain of Phosphatidylinositol 4,5-bisphosphate 3-kinase catalytic subunit gamma isoform (P48736 whole entry, canonical isoform): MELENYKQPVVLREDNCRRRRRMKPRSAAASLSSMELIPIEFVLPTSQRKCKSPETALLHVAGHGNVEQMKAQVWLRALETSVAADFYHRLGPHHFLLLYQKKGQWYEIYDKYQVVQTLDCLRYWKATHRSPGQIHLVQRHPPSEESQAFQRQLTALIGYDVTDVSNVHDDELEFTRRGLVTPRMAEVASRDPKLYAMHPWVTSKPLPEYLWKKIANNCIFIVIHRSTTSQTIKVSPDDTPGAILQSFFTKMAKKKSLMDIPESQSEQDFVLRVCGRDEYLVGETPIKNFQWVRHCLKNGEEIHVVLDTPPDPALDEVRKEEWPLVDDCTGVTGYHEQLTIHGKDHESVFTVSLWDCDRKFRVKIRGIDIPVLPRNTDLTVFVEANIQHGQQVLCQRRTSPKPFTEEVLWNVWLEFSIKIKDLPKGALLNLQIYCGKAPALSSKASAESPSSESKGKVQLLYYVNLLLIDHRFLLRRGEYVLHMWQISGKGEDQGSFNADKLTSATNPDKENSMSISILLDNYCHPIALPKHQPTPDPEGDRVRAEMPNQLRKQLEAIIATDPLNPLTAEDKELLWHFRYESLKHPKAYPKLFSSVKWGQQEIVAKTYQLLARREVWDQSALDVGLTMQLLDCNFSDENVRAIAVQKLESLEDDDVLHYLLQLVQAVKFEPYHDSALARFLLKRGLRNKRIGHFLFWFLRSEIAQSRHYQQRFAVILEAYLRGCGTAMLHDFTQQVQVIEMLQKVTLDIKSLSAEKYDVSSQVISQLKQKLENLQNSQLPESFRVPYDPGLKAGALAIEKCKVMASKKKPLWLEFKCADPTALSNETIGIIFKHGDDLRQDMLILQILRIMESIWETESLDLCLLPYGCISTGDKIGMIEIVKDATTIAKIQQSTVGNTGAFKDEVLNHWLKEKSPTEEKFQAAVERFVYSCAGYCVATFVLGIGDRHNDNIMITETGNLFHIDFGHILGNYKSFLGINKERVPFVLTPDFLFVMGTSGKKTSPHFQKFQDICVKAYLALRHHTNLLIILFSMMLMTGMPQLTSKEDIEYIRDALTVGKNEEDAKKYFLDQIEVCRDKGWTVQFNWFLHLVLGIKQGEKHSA
Test [7] is described as follows: Inhibition of V-ATPase (unknown origin). On the set-up: species or system Homo sapiens.
Test [8] deals with AMP-activated protein kinase, AMPK. Kind of test: Inhibition of rat AMPK. It is filed as protein-complex assay.

As usually defined, the EC50 is the concentration giving half of the maximal effect. What is called IC50 is the midpoint of a concentration-inhibition curve. The low end stands for inhibition by little substance, the high end for a need for much substance.

With `CN1CCN(Cc2cc(CNC3(c4ccccc4F)CCCC3)ccc2O)CC1`, the EC50 with BT-474 (read-out: EC50) worked out at 9500 nM.
For `O=C(NCCCNc1nc(Nc2cccc(CN3CCOCC3)c2)ncc1C1CC1)C1CC1`, the results for the IC50 in test [1] and in [2] were 2.9 nM and 1.1 nM, respectively. Further, the “fold change (FC)” value in test [3] is 2.
As to `O=C(N[C@@H](C1CC1)C(F)(F)F)c1cc(C2C=C3N=C(c4ccc(F)cc4)C=CN3N2)cs1` (some centres undefined), the IC50 in [1] was 8.3 nM; in [2], 30 nM.
For the compound `CC(C)[C@H](NC(=O)c1cc(C2C=C3N=C(c4ccc(OCCN5CCCCC5)cc4)C=CN3N2)cs1)C(F)(F)F` (some centres undefined), the IC50 worked out at 1.6 nM in test [1] and 2.6 nM in test [2].
With `CN1CCN(CCNc2c3ccccc3nc3cc(Cl)ccc23)CC1`, the IC50 in the test with U2OS [4] is 27000 nM. Further, the EC50 with U2OS [5] was 5000 nM.
For `COc1ccc2nc3cc(Cl)ccc3c(NCCCCN3CCN(C)CC3)c2c1` the same measures were 700 nM and 100 nM.
Compound `Cn1cnc(N)c2ncnc1-2` [3-METHYLADENINE] had an IC50 in [6] of 60000 nM.
The compound `CO/C1=C\C(C)=C\[C@@H](C)[C@@H](O)[C@@H](C)C/C(C)=C/C=C/[C@H](OC)[C@@H]([C@@H](C)[C@@H](O)[C@H](C)[C@@]2(O)C[C@@H](O)[C@H](C)[C@@H](C(C)C)O2)OC1=O` [BAFILOMYCIN A1] returned an IC50 in test [7] of 0.44 nM.
In the case of `CCN(CC)CCCC(C)Nc1ccnc2cc(Cl)ccc12` (centres undefined) [CHLOROQUINE], the EC50 in the test on BT-474 was 4800 nM.
`c1cc(-c2cnn3cc(-c4ccc(OCCN5CCCCC5)cc4)cnc23)ccn1` [DORSOMORPHIN] came in with an IC50 in test [8] of 1280 nM.
The compound `CCN(CC)CCCC(C)Nc1c2ccc(Cl)cc2nc2ccc(OC)cc12` (centres undefined) [QUINACRINE] registered an IC50 in the test on U2OS [4] of 2500 nM. The same compound gave an EC50 in the test on U2OS [5] of 250 nM.
In turn, `CCN(CC)CCNC(=O)c1c(C)[nH]c(/C=C2\C(=O)Nc3ccc(F)cc32)c1C` [SUNITINIB] came in with an IC50 in [8] of 62 nM.
